Test results from patent publication US20240294543A1, “CYCLOHEPTA-THIENO-DIAZEPINE DERIVATIVES AS GABA A GAMMA1 PAM” (Hoffmann-La Roche Inc., priority 2021, published 2024).
Read-outs that look alike come from different tables or passages of the source.

Assays:
[1] = target: human GABAA α1β3γ2 receptor (Homo sapiens (Human), UniProt P14867+P18507); test: Radioligand binding assay, competition for [3H]Flumazenil, γ2-containing GABAA subtypes; conditions: for γ2/γ1 Selectivity Ratio: Ki α1β3γ2 (nM)/Ki α2β2γ1 (nM); for LogSel: Log[Ki α1β3γ2 (nM)/Ki α2β2γ1 (nM)]
Method: The affinity of compounds at GABAA γ2 subunit-containing receptors was measured by competition for [^3H]Flumazenil (81.1 Ci/mmol; Roche) binding to HEK293F cells expressing human (transiently transfected) receptors of composition α1β3γ2.
Harvested pellets from HEK293F cells expressing the different GABAA γ2 receptor subtypes were resuspended in Mannitol Buffer pH 7,2-7,4 and processed as described above for the cells expressing the GABAA γ1 subunit-containing receptors.
Assays were incubated to equilibrium for 1 hour at 4° C. and harvested onto GF/C uni-filters (Packard) by filtration using a Packard harvester and washing with ice-cold wash buffer (50 mM Tris; pH 7.5). After anhydrousing, filter-retained radioactivity was detected by liquid scintillation counting. Ki values were calculated using Excel-Fit (Microsoft) and are the means of two determinations.

[2] = target: human GABAA α2β2γ1 receptor (Homo sapiens (Human), UniProt P47869+Q8N1C3); test: Radioligand binding assay, competition for [3H]RO7239181, γ1-containing GABAA subtypes; conditions: Ki h-GABAA α2β2γ1, membranes of HEK293F cells, [3H]RO7239181 20-30 nM
Method: The affinity of compounds at GABAA γ1 subunit-containing receptors was measured by competition for [^3H]RO7239181 (67.3 Ci/mmol; Roche) binding to membranes from HEK293F cells (ThermoFisher R79007) expressing human (transiently transfected) receptors of composition α5β2γ1, α2β2γ1, α1β2γ1.
Harvested pellets from HEK293F cells expressing the different GABAA receptor subtypes were resuspended in Mannitol Buffer pH 7.2-7.4 (Mannitol 0.29 M, Triethylamine 10 mM, Acetic acid 10 mM, EDTA 1 mM plus protease inhibitors (20 tablets Complete, Roche Diagnostics Cat. No. 05 056 489 001 per liter)), washed two times and then resuspended at 1:10 to 1:15 dilution in the same buffer. Cell disruption was performed by stirring the suspension in a Parr vessel #4637 at 435 psi for 15 minutes, and then the suspensions were centrifuged at 1000×g for 15 minutes at 4° C. (Beckman Avanti J-HC; rotor JS-4.2). The supernatant (S1) was transferred in a 21 Schott flask and the pellet (P1) was resuspended with Mannitol Buffer up to 175 ml. The resuspended pellet was transferred into a 250 ml Corning centrifugal beaker and centrifuged at 1500×g for 10 minutes at 4° C. (Beckman Avanti J-HC; rotor JS-4.2). The supernatant (S1) was then transferred in the 21 Schott flask and the pellet was discarded. The supernatants (S1) were centrifuged in 500 ml Beckman polypropylene centrifugal beaker at 15'000×g for 30 minutes at 4° C. (Beckman Avanti J-20 XP; rotor JLA-10.500). The pellet (P2) was resuspended with Mannitol Buffer 1:1 and frozen at −80° C. The supernatant (S2) was centrifuged in 100 ml Beckman polypropylene centrifugal tubes at 48000×g for 50 minutes at 4° C. (Beckman Avanti J-20 XP; rotor JA-18). The supernatant (S3) was discarded and the pellet (P3) was resuspended with 1:1 Mannitol Buffer. The P2 and P3 protein concentration was determined with the BIORAD Standard assay method with bovine serum albumin as standard and measured on the NANO-Drop 1000. The membrane suspension was aliquots (500 μl per tube) and stored at −80° C. until required.
Membrane homogenates were resuspended and polytronised (Polytron PT1200E Kinematica AG) in Potassium Phosphate 10 mM, KCl 100 mM binding buffer at pH 7.4 to a final assay concentration determined with a previous experiment.
Assays were incubated to equilibrium for 1 hour at 4° C. and then, membranes were filtered onto unifilter (96-well white microplate with bonded GF/C filters preincubated 20-50 minutes in 0.3% Polyethylenimine) with a Filtermate 196 harvester (Packard BioScience) and washed 4 times with cold Potassium Phosphate 10 mM pH 7.4, KCl 100 mM binding buffer. After anhydrousing, filter-retained radioactivity was detected by liquid scintillation counting. Ki values were calculated using Excel-Fit (Microsoft) and are the means of two determinations.

[3] = HEK293F cells, [3H]Flumazenil 1 nM, Table 1, read-out: Ki h-GABAA α1β3γ2

SMILES | Ki [1] [nM] | γ2/γ1 Selectivity Ratio ([1]; Table 1) | LogSel ([1]; Table 1) | Ki ([2]; Table 1) [nM] | Ki ([2]; Table 2) [nM] | Ki [1, 3] [nM]
Cc1nnc2n1-c1sc3c(c1C(c1c(F)cccc1F)=N[C@H]2C)CCCCC3O (mixture of isomers) [Example 9, (7S,16RS)-9-(2,6-difluorophenyl)-3,7-dimethyl-18-thia-2,4,5,8-tetrazatetracyclo[8.8.0.02,6.011,17]octadeca-1(10),3,5,8,11(17)-pentaen-16-ol] | 1130 | 79.4 | 1.90 | 14.3 | 14.3 | –
Cc1nnc2n1-c1sc3c(c1C(c1c(F)cccc1F)=N[C@H]2C)CCCC(O)C3 (mixture of isomers) [Example 13, (7S,15RS)-9-(2,6-difluorophenyl)-3,7-dimethyl-18-thia-2,4,5,8-tetrazatetracyclo[8.8.0.02,6.011,17]octadeca-1(10),3,5,8,11(17)-pentaen-15-ol] | 1190 | 78.9 | 1.90 | 15.1 | 15.1 | –
Cc1nnc2n1-c1sc3c(c1C(c1c(F)cccc1F)=N[C@H]2C)CCCC[C@H]3F (single isomer, unassigned) [Example 11] | 825 | 47.3 | 1.67 | 17.4 | 17.5 | –
C[C@@H]1N=C(c2c(F)cccc2F)c2c(sc3c2CCCCC3)-n2c(C3CC3)nnc21 [Example 3, (7S)-3-cyclopropyl-9-(2,6-difluorophenyl)-7-methyl-18-thia-2,4,5,8-tetrazatetracyclo[8.8.0.02,6.011,17]octadeca-1(10),3,5,8,11(17)-pentaene] | 1360 | 51.0 | 1.71 | 26.6 | 26.7 | –
C[C@@H]1N=C(c2c(F)cccc2F)c2c(sc3c2CCCCC3)-n2c(-c3cccnn3)nnc21 [Example 4, (7S)-9-(2,6-difluorophenyl)-7-methyl-3-pyridazin-3-yl-18-thia-2,4,5,8-tetrazatetracyclo[8.8.0.02,6.011,17]octadeca-1(10),3,5,8,11(17)-pentaene] | 4520 | 94.6 | 1.98 | 47.8 | 47.8 | –
C[C@@H]1N=C(c2c(F)cccc2F)c2c(sc3c2CCCCC3)-n2ccc(=O)nc21 [Example 7, (8S)-10-(2,6-difluorophenyl)-8-methyl-19-thia-2,6,9-triazatetracyclo[9.8.0.02,7.012,18]nonadeca-1(11),3,6,9,12(18)-pentaen-5-one] | 7690 | 205.1 | 2.31 | 37.5 | 37.5 | –
Cc1nc2n(n1)-c1sc3c(c1C(c1c(F)cccc1F)=N[C@H]2C)CCCCC3 [Example 20, (7S)-9-(2,6-difluorophenyl)-4,7-dimethyl-18-thia-2,3,5,8-tetrazatetracyclo[8.8.0.02,6.011,17]octadeca-1(10),3,5,8,11(17)-pentaene] | 1280 | 101.9 | 2.01 | 12.6 | 12.6 | –
C[C@@H]1N=C(c2c(F)cccc2F)c2c(sc3c2COCCO3)-n2nc(C(=O)N3CCC3)nc21 [Example 22, azetidin-1-yl-[(7S)-9-(2,6-difluorophenyl)-7-methyl-13,16-dioxa-18-thia-2,3,5,8-tetrazatetracyclo[8.8.0.02,6.011,17]octadeca-1(10),3,5,8,11(17)-pentaen-4-yl]methanone] | – | 304.3 | 2.48 | 10 | 10 | 3040
[2H]C1([2H])OCc2c(sc3c2C(c2c(F)cccc2F)=N[C@@H](C)c2nc(C(=O)N4CCC4)nn2-3)OC1([2H])[2H] [Example 23, azetidin-1-yl-[(7S)-14,14,15,15-tetradeuterio-9-(2,6-difluorophenyl)-7-methyl-13,16-dioxa-18-thia-2,3,5,8-tetrazatetracyclo[8.8.0.02,6.011,17]octadeca-1(10),3,5,8,11(17)-pentaen-4-yl]methanone] | – | 1329.5 | 3.12 | 6.3 | 6.3 | 8420
C[C@@H]1N=C(c2c(F)cccc2F)c2c(sc3c2COCCO3)-n2nc(C(=O)NCCF)nc21 [Example 25, (7S)-9-(2,6-difluorophenyl)-N-(2-fluoroethyl)-7-methyl-13,16-dioxa-18-thia-2,3,5,8-tetrazatetracyclo[8.8.0.02,6.011,17]octadeca-1(10),3,5,8,11(17)-pentaene-4-carboxamide] | – | 75.4 | 1.88 | 29 | 29 | 2190
Cc1cn2c(nc1=O)[C@H](C)N=C(c1c(F)cccc1F)c1c-2sc2c1CCCCC2 [Example 26, (8S)-10-(2,6-difluorophenyl)-4,8-dimethyl-19-thia-2,6,9-triazatetracyclo[9.8.0.02,7.012,18]nonadeca-1(11),3,6,9,12(18)-pentaen-5-one] | 6040 | 188.9 | 2.28 | 32 | 32 | –
Cc1nnc2n1-c1sc3c(c1C(c1c(F)cccc1F)=N[C@H]2C)CC[C@@H](O)CC3 [Example 27, (7S,14R)-9-(2,6-difluorophenyl)-3,7-dimethyl-18-thia-2,4,5,8-tetrazatetracyclo[8.8.0.02,6.011,17]octadeca-1(10),3,5,8,11(17)-pentaen-14-ol] | 11400 | 266.4 | 2.43 | 42.8 | 42.8 | –
Cc1nc2n(n1)-c1sc3c(c1C(c1c(F)cccc1F)=N[C@H]2C)COCCO3 [Example 28, (7S)-9-(2,6-difluorophenyl)-4,7-dimethyl-13,16-dioxa-18-thia-2,3,5,8-tetrazatetracyclo[8.8.0.02,6.011,17]octadeca-1(10),3,5,8,11(17)-pentaene] | 1940 | 353.3 | 2.55 | 5.5 | 5.5 | –
C[C@@H]1N=C(c2c(F)cccc2F)c2c(sc3c2COCCO3)-n2nc(C(=O)N3CC(OC(C)(C)C)C3)nc21 [Example 29, (3-tert-butoxyazetidin-1-yl)-[(7S)-9-(2,6-difluorophenyl)-7-methyl-13,16-dioxa-18-thia-2,3,5,8-tetrazatetracyclo[8.8.0.02,6.011,17]octadeca-1(10),3,5,8,11(17)-pentaen-4-yl]methanone] | – | 366.9 | 2.56 | 7.7 | 7.7 | 2830
C[C@@H]1N=C(c2c(F)cccc2F)c2c(sc3c2COCCO3)-n2nc(C(=O)NC3CC3)nc21 [Example 36] | – | 72.6 | 1.86 | 56.3 | 56.3 | 4080
CCNC(=O)c1nc2n(n1)-c1sc3c(c1C(c1c(F)cccc1F)=N[C@H]2C)COCCO3 [Example 37, (7S)-9-(2,6-difluorophenyl)-N-ethyl-7-methyl-13,16-dioxa-18-thia-2,3,5,8-tetrazatetracyclo[8.8.0.02,6.011,17]octadeca-1(10),3,5,8,11(17)-pentaene-4-carboxamide] | – | 121.1 | 2.08 | 33.7 | 33.7 | 4080
